This note sets out measurements from PubChem BioAssay AID328 (DTP/NCI, 2004).

Molecules are shown by their SMILES. “And” between values parts separate entries of the source, which are not always exact repeats. Equal entries are not always repeated. Toxic doses and inconclusive results are not listed. Residues, ends and D or L forms follow the SMILES beside them. *: point of attachment. Cbz = O=C(OCc1ccccc1)*; Bn = c1ccc(C*)cc1

For this test, the system named is BDF1 mice, P388 leukemia ip, median survival T/C. In words: NCI In Vivo Anticancer Drug Screen. Data for tumor model P388 Leukemia (intraperitoneal) in B6D2F1 (BDF1) mice. The conditions noted are these: endpoint: median survival time, higher = longer survival. The method, boiled down: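 Transplantable tumour in mice; compound vs vehicle dosing; survival scored; ratio of treated to control reported.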

The mark [1] stands for this setting: dose: 100.0 mg/kg/injection, schedule: Q04DX003 (ip), vehicle: saline with Tween-80.
Setting [2] is: dose: 100.0 mg/kg/injection, schedule: Q04DX003 (ip), vehicle: saline.
Setting [3] is: dose: 100.0 mg/kg/injection, schedule: Q01DX009 (ip), vehicle: saline.
Where [4] appears, read: dose: 25.0 mg/kg/injection, schedule: Q04DX003 (ip), vehicle: saline.
[5] abbreviates: dose: 50.0 mg/kg/injection, schedule: Q04DX003 (ip), vehicle: saline.
The mark [6] stands for this setting: dose: 12.5 mg/kg/injection, schedule: Q01DX009 (ip), vehicle: Klucel (hydroxypropylcellulose) (HPC).
Where [7] appears, read: dose: 25.0 mg/kg/injection, schedule: Q01DX009 (ip), vehicle: Klucel (hydroxypropylcellulose) (HPC).
[8] abbreviates: dose: 100.0 mg/kg/injection, schedule: Q01DX009 (ip), vehicle: Klucel (hydroxypropylcellulose) (HPC).
The mark [9] stands for this setting: dose: 100.0 mg/kg/injection, schedule: Q04DX003 (ip), vehicle: water.
The mark [10] stands for this setting: dose: 200.0 mg/kg/injection, schedule: Q04DX003 (ip), vehicle: water.

On to `C(CC1CO1)CC1OC1CC1CO1` (stereo unspecified), for which the T/C runs as follows: (dose: 65.0 mg/kg/injection, schedule: Q04DX003 (ip), vehicle: saline) 113 % of control; (dose: 67.0 mg/kg/injection, schedule: Q04DX003 (ip), vehicle: saline with Tween-80) 113 % of control; under setting [1], 122 % of control; under setting [2], 109 % of control; (dose: 150.0 mg/kg/injection, schedule: Q04DX003 (ip), vehicle: saline with Tween-80) 181 % of control; (dose: 150.0 mg/kg/injection, schedule: Q04DX003 (ip), vehicle: saline) 154 % of control. In addition, the T/C (dose: 225.0 mg/kg/injection, schedule: Q04DX003 (ip), vehicle: saline with Tween-80) is 181 % of control.
Consider `C#CCOCC(O)CN` (stereo unspecified), for which the T/C under setting [3] is 100 % of control; the T/C under setting [2] was 110 % of control; the T/C (dose: 200.0 mg/kg/injection, schedule: Q01DX009 (ip), vehicle: saline) is 120 % of control; the T/C (dose: 200.0 mg/kg/injection, schedule: Q04DX003 (ip), vehicle: saline) is 100 % of control; the T/C (dose: 400.0 mg/kg/injection, schedule: Q01DX009 (ip), vehicle: saline) was 104 % of control; the T/C (dose: 400.0 mg/kg/injection, schedule: Q04DX003 (ip), vehicle: saline) was 100 % of control.
Take `CCOC(=O)Nc1cc(NC(C)CCCN(CC)CC)c2ncc(-c3ccccc3)nc2n1` (stereo unspecified) (tested in a mixture with another compound): the T/C was 100 % of control (dose: 25.0 mg/kg/injection, schedule: Q01DX009 (ip), vehicle: saline); 104 % of control under setting [4]; 100 % of control (dose: 50.0 mg/kg/injection, schedule: Q01DX009 (ip), vehicle: saline); 100 % of control under setting [5]; 104 % of control under setting [3]; 104 % of control under setting [2].
As to `O=C(NC(CSCc1ccccc1)C(=O)NC(Cc1ccc(O)cc1)C(=O)O)OCc1ccccc1` (stereo unspecified) (Cbz-Cys(Bn)-Tyr-OH; configuration not given here), the T/C by setting is: (dose: 100.0 mg/kg/injection, schedule: Q01DX009 (ip), vehicle: gum acacia) 95 % of control; (dose: 100.0 mg/kg/injection, schedule: Q04DX003 (ip), vehicle: gum acacia) 88 % of control; (dose: 200.0 mg/kg/injection, schedule: Q01DX009 (ip), vehicle: gum acacia) 95 % of control; (dose: 200.0 mg/kg/injection, schedule: Q04DX003 (ip), vehicle: gum acacia) 107 % of control; (dose: 400.0 mg/kg/injection, schedule: Q01DX009 (ip), vehicle: gum acacia) 100 % of control; (dose: 400.0 mg/kg/injection, schedule: Q04DX003 (ip), vehicle: gum acacia) 92 % of control.
`NC(CSC(c1ccccc1)(c1ccccc1)c1ccc(F)cc1)C(=O)O` (stereo unspecified): the T/C is, setting by setting: (dose: 2.9 mg/kg/injection, schedule: Q01DX009 (ip), vehicle: Klucel (hydroxypropylcellulose) (HPC)) 107 % of control; (dose: 4.3 mg/kg/injection, schedule: Q01DX009 (ip), vehicle: Klucel (hydroxypropylcellulose) (HPC)) 123 % of control; under setting [6], 170 % of control; (dose: 23.0 mg/kg/injection, schedule: Q01DX009 (ip), vehicle: Klucel (hydroxypropylcellulose) (HPC)) 216 % of control; under setting [7], 227 % of control; (dose: 25.0 mg/kg/injection, schedule: Q04DX003 (ip), vehicle: Klucel (hydroxypropylcellulose) (HPC)) 170 % of control. Further, the T/C reads like this: (dose: 35.0 mg/kg/injection, schedule: Q01DX009 (ip), vehicle: Klucel (hydroxypropylcellulose) (HPC)) 222 % of control; (dose: 50.0 mg/kg/injection, schedule: Q01DX009 (ip), vehicle: Klucel (hydroxypropylcellulose) (HPC)) 255 % of control and 104 % of control and 209 % of control; (dose: 50.0 mg/kg/injection, schedule: Q04DX003 (ip), vehicle: Klucel (hydroxypropylcellulose) (HPC)) 180 % of control; (dose: 75.0 mg/kg/injection, schedule: Q01DX009 (ip), vehicle: Klucel (hydroxypropylcellulose) (HPC)) 90 % of control; under setting [8], 194 % of control; (dose: 100.0 mg/kg/injection, schedule: Q04DX003 (ip), vehicle: Klucel (hydroxypropylcellulose) (HPC)) 175 % of control and 185 % of control. The T/C (dose: 200.0 mg/kg/injection, schedule: Q01DX009 (ip), vehicle: Klucel (hydroxypropylcellulose) (HPC)) was 100 % of control; the T/C (dose: 200.0 mg/kg/injection, schedule: Q04DX003 (ip), vehicle: Klucel (hydroxypropylcellulose) (HPC)) was 285 % of control and 205 % of control.
For the compound `Oc1cccc2c1[O][Sb][O]2`, the T/C is, setting by setting: (dose: 3.0 mg/kg/injection, schedule: Q01DX009 (ip), vehicle: saline with Tween-80) 102 % of control; (dose: 6.0 mg/kg/injection, schedule: Q01DX009 (ip), vehicle: saline with Tween-80) 110 % of control; (dose: 11.0 mg/kg/injection, schedule: Q04DX003 (ip), vehicle: saline with Tween-80) 112 % of control; (dose: 16.5 mg/kg/injection, schedule: Q04DX003 (ip), vehicle: saline with Tween-80) 112 % of control; (dose: 25.0 mg/kg/injection, schedule: Q01DX009 (ip), vehicle: saline with Tween-80) 110 % of control.
Take `CCOC(=O)C1CC1Cc1ccccc1` (stereo unspecified): the T/C is, setting by setting: (dose: 100.0 mg/kg/injection, schedule: Q01DX009 (ip), vehicle: saline with Tween-80) 108 % of control; under setting [1], 104 % of control; (dose: 200.0 mg/kg/injection, schedule: Q01DX009 (ip), vehicle: saline with Tween-80) 108 % of control; (dose: 200.0 mg/kg/injection, schedule: Q04DX003 (ip), vehicle: saline with Tween-80) 108 % of control; (dose: 400.0 mg/kg/injection, schedule: Q01DX009 (ip), vehicle: saline with Tween-80) 120 % of control; (dose: 400.0 mg/kg/injection, schedule: Q04DX003 (ip), vehicle: saline with Tween-80) 113 % of control.
Regarding `NN=C1CCC(=NN)CC1`, the T/C (dose: 12.5 mg/kg/injection, schedule: Q01DX009 (ip), vehicle: water) is 100 % of control; the T/C (dose: 25.0 mg/kg/injection, schedule: Q01DX009 (ip), vehicle: water) was 105 % of control and 109 % of control; the T/C (dose: 25.0 mg/kg/injection, schedule: Q04DX003 (ip), vehicle: water) was 90 % of control and 104 % of control; the T/C (dose: 50.0 mg/kg/injection, schedule: Q01DX009 (ip), vehicle: water) was 103 % of control and 113 % of control and 114 % of control; the T/C (dose: 50.0 mg/kg/injection, schedule: Q04DX003 (ip), vehicle: water) is 95 % of control and 114 % of control and 118 % of control; the T/C under setting [9] is 102 % of control and 111 % of control. Besides, the T/C under setting [10] was 92 % of control.
Regarding `O=[N+]([O-])c1ccc(C[Se]c2ncnc3c2ncn3C2OC(CO)C(O)C2O)cc1` (stereo unspecified), the T/C was 109 % of control (dose: 12.5 mg/kg/injection, schedule: Q04DX003 (ip), vehicle: saline); 103 % of control under setting [4]; 96 % of control under setting [5]; 105 % of control under setting [2].
For the compound `CC(=O)C(=Cc1c[nH]c2ccccc12)C(C)=O`, the T/C was 92 % of control under setting [6]; 90 % of control under setting [7]; 110 % of control under setting [8]; 105 % of control under setting [9]; 120 % of control under setting [10].
